From patent US8512769B2, “Valerian extract preparation” (priority 2006, dated 2013)

System: male CD rats
Experiment: Forced swimming test (FST) for antidepressive effect
Type: in vivo
Details: 1 mg/kg
Text: A more specific test for antidepressive activity is provided by the forced swimming test (FST) developed by Porsolt (Porsolt et al., 1978. Behavioural despair in rats: a new model sensitive to antidepressant treatments, Eur. J. Pharmacol. 47, 379-391).
In a so-called “forced swimming test”, the test animals (rats) are challenged by a stress situation from which they cannot escape by their own efforts. For this purpose, rats are at first left in a water-filled glass cylinder for a time of 15 minutes in a preliminary test (conditioning) one day before the actual test. The filling level is matched to the animals' body weight, so that every animal can support itself with the paws and tail and can keep its nose above water with minimum swimming movements. […] Twenty-four hours after this preliminary test, the test with valerian extract is performed in which the rats are again inserted into the water cylinders and the duration of immobility over a period of 5 minutes is cumulatively recorded.
For testing the valerian formulations on male CD rats, a pretreatment was used for 16 days, and the formulation according to Example 2b) was employed. […] The experiment was recorded by means of a video camera, and the time of immobility of the animals was later detected manually on the screen.

CN1C(=O)CN=C(c2ccccc2)c2cc(Cl)ccc21 [Diazepam]
Shortening of immobility time as compared to the control group: 28%
